Data from patent US20030166601A1, “Novel colloid synthetic vectors for gene therapy” (priority 1999, published 2003).

Experiments:
CHO (Sst2) cells = assay: Transfection of CHO (Sst2) cells with peptide ligand complexes, luciferase; assay type: cell-based; conditions: polylysine core complexes; FIG. 26
Excerpt: K14RGD peptide containing the amino acid sequence: KKK KKK KKK KKK KKS CRG DC (SEQ ID NO:5) with at least 90% purity was synthesized at Alpha Diagnostic International (San Antonio, Tex.). Peptide K14SMT contains the amino acid sequence: KKK KKK KKK KKK KKA d-FCY d-WKT CT (SEQ ID NO:6), and peptide K14MST contains the amino acid sequence KKK KKK KKK KKK KKA TDC RGE CF (SEQ ID NO:7). Both SMT and MST peptides were synthesized at Genemed Synthesis Inc (CA, South San Francisco) and oxidized to make circularized peptide. The peptide was purified to 90% purity by the provider. CHO (Sst+) cell line was obtained from Novartis Oncology (Dr. Friedrich Raulf). The cell line was selected to stable express human somatostatin receptor Sst2.
10000 CHO (Sst2) cells were cultured in a serum-containing medium with 0.4 mg/ml G418 for 12 hr before transfection in each well of a 96 well plate. The medium was changed to a serum free medium before transfection. Peptide was added to the cell at indicated amounts from 1 ug to 10 ug/well and incubated for 30 min before 0.5 ug pCIluc2 was added to the same medium to transfect the cells. Lipofectin at 4 ul was used as the control.
(§1) At 24 hr, luciferase activity was measured with Promega luciferase assay kit according to the recommended procedure.

BL-6 cells = assay type: cell-based; conditions: polylysine core complexes; FIG. 8
mouse = assay: In vivo transfection with cationic lipid complexes containing fusogenic or steric surfactants; conditions: DOTAP:Chol core complexes; FIG. 7
Protocol: All lipids of a formulation including surfactants were dissolved in an organic solvent such as cyclohexane and mixed together at the desired ratio and then lyophilized to dryness. For example, 45 mg DOTAP and 25 mg cholesterol, or 10 mg GC-030 and 4.74 mg cholesterol were used for DOTAP:Chol and GC-030:Chol, respectively. Double distilled water was added to the lipid cake to give a final concentration of 10 mg/ml of cationic lipid (cholesterol is a neutral lipid that is not counted for calculation of lipid dispersion concentration or later for charge ratio with DNA) and allowed to hydrate at 70 C for 1 hr. The lipid dispersion was extruded through 100 nm pore carbonate membranes (Avanti Polar Lipids Inc) or vortexed for 1 min at room temperature.
Forty microgram of pCILuc was dissolved in 100 μl of 10% glucose and mixed by hand with different amount of lipids dispersion dissolved in 100 μl distilled H2O. The final concentration of Glucose is 5%. The mixing was performed by added the DNA solution to the lipid solution. The charge ratio of lipids to DNA in this mixture was indicated in the text. 200 μl of DNA/lipid complex solutions was injected into mouse tail vein. Each group had 3-5 mice. Five hours later, mice were sacrificed. […] Luciferase activity was determined by using luciferase assay system kit from Promega. […]

[1] = Particle size of substituted aminoethanol-DNA complexes; assay type: physicochemical
Excerpt: The component streams intersect in the mixer, whereby shearing and mixing of the DNA and polymer are induced, whereby particles of a complex of DNA and polymer are formed. The resulting preparations may be tested for mean particle size in nanometers and distribution through dynamic light scattering using, for example, a Coulter N4 Plus Submicron Particle Sizer (Coulter Corporation, Miami, Fla.). Mean particle sizes and standard deviaitons can be determined by the unimodal and Size Distribution Processing (SDP), or “intensity” methods.
In the above methods, a laser is directed through a preparation of the particles. Dynamic light scattering is measured as a result of the Brownian motion of the particles. The dynamic light scattering-which is measured then is correlated-to particle size. In the unimodal method, the size distribution is determined by placing the sizes of the particles on a Gaussian curve. In the SDP method, size distribution is determined by a FORTRAN program called CONTIN. Such methods also are described further in the Coulter N4 Plus Submicron Particle Sizer Reference Manual (November 1995).
(§2) Substituted aminoethanols lacking long chain hydrocarbon (aliphatic) substitutients were used to compact plasmid DNA into a colloidal dispersion in water. The size and zeta potential of the colloidal dispersions prepared were determined at different charge ratios for added cation (amine) to anion (DNA phosphate) and are shown in Table 1 and FIG. 4. The colloidal dispersions prepared permit compaction of the DNA into core complexes that are suitable for the invention.

[2] = Zeta potential of substituted aminoethanol-DNA complexes; assay type: physicochemical; conditions: in mV (unit assumed)
Protocol: as §2

HUVEC cells = assay: Transfection of HUVEC cells with K14RGD/Lipofectin complexes, luciferase; assay type: cell-based; conditions: added to lipofectin core complexes; FIG. 25
Protocol: 20000 HUVEC cells were seeded to each well of a 96 well plate and cultured for 12 hr before transfection. 0 or 2 ug of K14RGD peptide was mixed with indicated amount of Lipofectin from 0.1 ul to 4 ul in 50 ul of serum free medium for 15 min. The mixture was added to 50 ul serum free medium containing 0.5 ug pCIluc2 DNA. The poly-lipoplex was incubated for 30 min before added to the cells. The transfection solution was removed after 3 hr and serum-containing medium was added to the cells.
as §1

Molecule: KKK KKK KKK KKK KKA TDC RGE CF [MST]
- expression, effect of peptide ligand (CHO (Sst2) cells): not observed

Molecule: GLF GAI EGF IEN GWE GWI DGW YGC KCK KKK KKK KKK KKK K [Example K14-Fuso]
- expression, effect of fusogenic peptide (BL-6 cells): increased expression

Molecule: CCCCCCCC/C=C\CCCCCCCC(=O)OCCOCC(OCCO)C1OCC(OCCO)C1OCCO (centres unmarked) [Tween 80]
- gene transfer in vivo, effect of additive (mouse): improved

Molecule: CCN(CCCNCCCNCN(CC)C(=O)CN)C(=O)CN [CGP 61750A]
- Particle Size ([1]; charge ratio (+/−) 0.5): 176.7 nm
- Particle Size ([1]; charge ratio (+/−) 1.0): 77.6 nm
- Particle Size ([1]; charge ratio (+/−) 1.5): 90.3 nm
- Particle Size ([1]; charge ratio (+/−) 2.0): 206.8 nm
- Particle Size ([1]; charge ratio (+/−) 3.0): 1941.8 nm
- Particle Size ([1]; charge ratio (+/−) 4.0): 2526.8 nm
- Zeta Potential ([2]; charge ratio (+/−) 0.5): −47.3
- Zeta Potential ([2]; charge ratio (+/−) 1.0): −30
- Zeta Potential ([2]; charge ratio (+/−) 1.5): −25
- Zeta Potential ([2]; charge ratio (+/−) 2.0): −17.1
- Zeta Potential ([2]; charge ratio (+/−) 3.0): −11.7
- Zeta Potential ([2]; charge ratio (+/−) 4.0): −9.78

Molecule: KKK KKK KKK KKK KKA d-FCY d-WKT CT [SMT]
- expression, effect of peptide ligand (CHO (Sst2) cells): increased expression

Molecule: KKK KKK KKK KKK KKS CRG DC [Example K14RGD]
- expression, effect of peptide ligand (HUVEC cells): increased expression
